Assay results as given in patent US20220106547A1, “COMPOSITIONS AND METHODS OF USING PARTIAL GEL LAYERS IN A MICROFLUIDIC DEVICE” (Emulate, Inc., priority 2019, published 2022).

Columns and labels:
lung cells = assay: Viability/differentiation biomarker scoring of airway chip culture conditions; type: cell-based; details: airway S1 chip culture
From the text: In one embodiment, the present invention contemplates a method comprising scoring at least one cell biomarker and determining a viable and differentiated cell. For example, specific quantitative scores have been assigned to a set of cell biomarkers for viability and differentiation during chip cell culture maturation includes, but is not limited to, cell death (1), ciliation (2) cell attachment (3) cell movement/shape (4), cell overgrowth (5), cell invasion (6). See, FIG. 14.
As depicted, the score value increases as the viability/differentiation relevance of the cell biomarker decreases. In one embodiment, the cell death biomarker score value increases in proportion to increased cell death. In one embodiment, the ciliation biomarker score value increases in proportion to deceased ciliation. In one embodiment, the cell attachment biomarker score value increases in proportion to decreased cell attachment. In one embodiment, the cell movement/shape biomarker score value increases with decreased cell movement/shape. In one embodiment, the cell overgrowth biomarker score value increases with increased cell overgrowth. […]
Each coating can be seen to result in different score values that are independent of location in the cell culture device (e.g., Zoe). […] It is known that retinoic acid (RA) is readily absorbed by most microchip substrates. […]

[1] = tested on: mucociliary bronchiolar epithelium (hAECs); assay: Effect of IL-13 on goblet cells and cilia beating frequency in Airway Chip; type: cell-based, human; details: IL-13 100 ng/mL, 7 days
Procedure: Cilia beating frequency (CBF) was measured by applying Fourier spectral analysis to high-speed video recordings of the ciliated surfaces. Using an inverted phase contrast microscope, the ciliated surfaces were recorded at 190-200 frames per second and at a resolution of 512 by 512 pixels, which corresponded to a field of view of 166 by 166 μm^2 (0.32 μm per pixel). Cilia beating was recorded at multiple randomly chosen fields of view (FOV) for each chip.
A first step of video processing was to identify regions of ciliary beating by computing a normalized standard deviation of an intensity value for each pixel across all frames. […] FIG. 104A-B.
In a further step, areas with ciliary motion were thresholded and the movie field of view was divided into 289 windows (ca. 10×10 μm^2 in size). For each window, a random set comprising 70% of all pixels with detected motion was further analyzed to detect the dominant beat frequency. For each sampled pixel, ciliary beat frequency was determined from a time-dependent fluctuation of pixel brightness reflecting the periodicities of the ciliary movement. A bandwidth filter (e.g., approximately 1 to 30 Hz) was applied to each pixel signal to remove noise. […] Thus, for each FOV, the number of measured CBFs was determined by the number of windows with usable signals (e.g., 289 windows). […]

human neutrophils = assay: Neutrophil recruitment/adhesion in HRV infected Airway Chips; type: cell-based
From the text: In one embodiment, the present invention contemplates a method for reducing neutrophil adhesion using an IL-13 inhibitor. In one embodiment, the IL-13 inhibitor is a CXCR2 antagonist. In one embodiment, the IL-13 inhibitor is MK-7123. In one embodiment, the neutrophil adhesion is reduced by approximately seventy-five (75) percent (%). In one embodiment, the IL-13 recruits neutrophils by approximately two-fold.
This response was accompanied by a reduction in neutrophil velocity. FIG. 95A, 95B. Also observed was a significant twofold increase in neutrophil recruited between HRV infected chips and infected chips in presence of IL-13 (953 vs 1999; p<0.001). FIG. 95A. […] FIG. 95C.

[2] = tested on: primary human hepatocytes; assay: Lipid droplet accumulation (AdipoRed) in ALD Liver-Chip; details: ethanol 0.08% or 0.16%, oleic acid 1 μg/ml, up to 48 hrs
[3] = tested on: primary human hepatocytes; details: 0.08% and 0.16% pooled vs vehicle
[4] = tested on: primary human hepatocytes; assay: Oxidative stress (MitoSox ROS events) in Liver-Chip hepatocytes; type: cell-based; details: 48 h exposure
From the text: Having shown that at least one embodiment of a Liver-Chip responds to alcohol, we explored the possibility of modeling the progression of ALD, as per the two- or one-hit and second-hit hypothesis, such that simple steatosis induced by alcohol requires a second hit (insult) for progression of ALD to ASH ref^69. Ethanol consumption in humans compromises the intestinal barrier function resulting in increased permeability to intestinal endotoxins, e.g. bacterial lipopolysaccharide (LPS), from the gut to the liver via the portal vein ref^18. Such a permeabalized leaky barrier is considered one of the “second hits” in the progression of ALD to inflammation (ASH) ref^70. Therefore, we tested whether exposure to ethanol and LPS together would worsen the Liver-Chip pathology.
Clinical data have shown the potential of the steatotic liver to repair the steatotic injury following timely abstinence from alcohol or with diet modifications ref^19. Thus, we assessed the responses of the “alcoholic” Liver-Chip to withdrawal from ethanol or ethanol+LPS. Treatment of the Liver-Chip for 48 h with ethanol or ethanol+LPS as above, was followed by a 5 day-long treatment-free “recovery” period. […]
Live cell staining. […] The stained chips were imaged using either an Olympus fluorescence microscope (IX83) or Zeiss confocal microscope (LSM880), and were de-blurred with Olympus cellSens software. […]

[5] = tested on: bile canaliculi network of primary human hepatocytes; assay: Bile canaliculi (BC) network integrity, MRP-2 staining, Liver-Chip; type: cell-based; details: 0.08% ethanol with or without LPS, 48 h
From the text: A Tri-culture configuration includes primary hepatocytes cultured in the upper channel and primary liver sinusoidal endothelial cells (LSECs) cultured on the opposite side of the membrane, i.e. in the lower channel, along with Kupffer cells. As this design recapitulates elements of the hepatic sinusoid microenvironment ref^17, we were interested in recreating the bile canaliculi (BC) network that is established between neighboring hepatocytes. […] The latter together with the lack of a reproducible, quantitative manner to assess the integrity of the BC network have precluded the use of this clinical endpoint in preclinical studies. […] Based on these findings, we assessed the impact of various ECM scaffold compositions and patterning methods on BC integrity by using quantitative metrics to describe the MRP-2 stained BC network topology (FIG. 82A-E: Table 8. […]
To assess the effect of each ECM protocol on BC network formation, we quantified the MRP-2 stained BC network topology (see method sections on IF staining and Image analysis for details). […]
For measuring bile canaliculi network properties, MRP-2 stained chips were imaged at 40× using a confocal point-scanning microscope (Zeiss LSM880, Airyscan). […] In each field of view, a z-stack was recorded and combined using maximal intensity projection in order to fully capture the bile canaliculi network. […]

[6] = tested on: primary human hepatocytes; details: 48 hrs
From the text: To this purpose we used fluorometric assays for biochemical markers of liver function, including albumin, cholesterol, glucose, and glycogen (FIG. 77A-B).
Liver-Chip culture. Liver-Chip culture was established according to our previously published protocol^74. […] Extracellular matrix sandwiching and composition in the Liver-Chip was optimized to support BC integrity (FIG. 81A-B and method sections below). On the other side of the membrane (the lower chamber of the chip) human primary LSECs (3 million cells/mL) and KCs (0.5 million cells/mL) were seeded to mimic the hepatic sinusoid architecture (FIG. 76A). The two cell compartments were perfused independently, and flow rates were optimized to enable optimal survival and maturation of the different cell types ref^74. In the Quad Liver-Chip experiments, primary human hepatic stellate cells (50,000 cells/mL) were mixed within the collagen coating (FibriCol at 0.5 mg/ml concentration) and add to activated chips and let incubate overnight before hepatocytes seeding on the top of the collagen and HSC mix. The seeded hepatocytes were overlaid with ECM as described in FIG. 81A-B and below, and maintained in William's E Medium (WEM) containing Glutamax (Gibco), ITS+ (Corning), dexamethasone (Sigma-Aldrich), ascorbic acid (Sigma-Aldrich), fetal bovine serum (Sigma-Aldrich), and penicillin/streptomycin (Sigma-Aldrich), and incubated at 37° C., 5% CO2. The vascular channel of the Liver-Chip was maintained with human endothelial media (Emulate, Inc.). Two days after seeding, the Liver-Chips were connected to the Human Emulation System™ (Emulate, Inc.) and both chip channels were perfused at 30 μL/h to provide a continuous supply of fresh medium for the duration of the experiments. At day 5 in culture, the basal medium was modified to DMEM low glucose (1 g/L) supplemented with non-essential amino acids solution (NEAA, 1:200 dilution), glutaMAX (Thermo Fisher) ascorbic acid (Sigma-Aldrich) and penicillin/streptomycin (Sigma-Aldrich). Moreover, ITS+ premix (Corning) was replaced by ITS (GIBCO, 1:500 dilution) in order to achieve a more physiological relevant concentration of insulin, while the FBS supplement was removed. Treatment. […] The Liver-Chip was maintained for 48h in treatment medium and either assayed or allowed to recover for 5 days in basal medium. Optimization of Liver-Chip ECM for BC integrity. We iteratively modified the original ECM coating protocol^74 in order to improve BC formation. Five different combinations of ECM composition and deposition strategy were tested (FIG. 82B), where ECM-A denoted the original protocol. Briefly, for ECM-A, top and bottom channels were coated by incubating with 100 μg/mL rat tail collagen-I (Corning) and 25 μ/mL fibronectin (Gibco) overnight at 37° C. […]

“Bovine Serum Albumin (BSA): membrane coating layer of bovine serum albumin” was tested, and the “cell viability and differentiation (scoring / morphological assessment)” value (lung cells) was “found to support the most viable and differentiated cells”.
With IL-13: Th2 cytokine IL-13 the “reduction in cilia beating frequency” value [1] was 14.4%, the “goblet cells, total area” value ([1]; 16.5% without IL-13) was 50.3% and the neutrophil recruited (human neutrophils; HRV infected chips in presence of IL-13, 953 in HRV infected chips alone) was 1999.
`CCCCCCCC/C=C\CCCCCCCC(=O)O` [oleic acid, reference compound] was tested, and the “steatosis (hepatic lipid accumulation)” value [2] was “steatosis was induced”.
With `CC[C@@H](Nc1c(Nc2cccc(C(=O)N(C)C)c2O)c(=O)c1=O)c1ccc(C)o1` [MK-7123, reference compound] the “reduction of neutrophil adhesion” value (human neutrophils; stated as embodiment, MK-7123 10 μM in FIG. 95) was ~75%.
`CCO` [ethanol] was tested, and the “steatosis (hepatic lipid accumulation)” value [2] was “steatosis was induced”, the “downregulated DE genes” value [3] was 36 and the “upregulated DE genes” value [3] was 87. The “differentially expressed (DE) genes” value ([3]; adj. p<0.05, |log2FC|>1) was 123, the “ROS events per nuclei” value [4] was “dose-dependent increase in ROS events” and the “dilated BC (cholestatic) areas” value [5] was “areas of markedly dilated BCs”. For the same compound, the “glycogen storage in cell lysates” value ([6]; 0.08% ethanol) was “trend for increase”, the albumin release [6] was “not affected” and the cholesterol levels ([6]; human-relevant BACs, effluent and cell lysates) was “significant increase in cholesterol levels”. For the same compound, the glucose release ([6]; except toxic concentrations above 0.32%) was “no changes were detected”.
